The results in this text go back to patent publication US6093714A, “Tricyclic benzazepine compounds” (priority 1995, dated 2000).

In test [1] the test system is intraperitoneal cells. Kind of test: Histamine release reaction inhibition test (rat intraperitoneal cells, DNP-As antigen). The class given is cell-based, Wistar male rat. The note with it: 10^-5 to 10^-10 M test compound, DNP-As stimulated intraperitoneal cells, 10^5 cells/ml, read-out: IC50 (dose of the test compound required for inhibiting the histamine release reaction by 50%). The procedure:
Histamine release reaction inhibition test
(1) Preparation of antiserum
Rat anti-dinitrophenylated ascaris protein (hereinafter referred to as "DNP-As") serum was prepared according to the method established by Tada et al. (Tada, T. and Okumura, K., J. Immun. 106(4), 1971). Specifically, 1010 organisms of Bordetella pertussis and 1 mg of DNP-As were intramuscularly administered to the foot pad of the limbs of Brown norway male rats weighing 200 g, and, five days after the administration, 0.5 mg of DNP-As was intramuscularly administered to the back. Three days after that, blood was collected to prepare an antiserum. The titer of the antiserum was determined by using a 48-hr passive cutaneous anaphylaxis reaction using a rat and found to be 1:1000 to 1:2000.
(2) Induction of histamine release reaction and release reaction inhibitory activity
The above serum was diluted four times with physiological brine, and 1 ml of the diluted serum was intraperitoneally administered to a Wistar male rat. Two days after the administration, the abdominal cavity was washed with phosphate buffer, and intraperitoneal cells were collected. The cells were adjusted to 10^5 cells/ml and stimulated with 1 pg/ml DNP-As, and the amount of the histamine released on the supernatant was measured by the method established by Shore et al (Shore, P. A., Burkhalter, A. H. and Chon Jr. V. H. J. Pharm. Exp. Ther., 127 , 182-186 (1959)).
The amount of the released histamine treated with 10^-5 to 10^-10 M test compound was compared with that of non-treated group. The dose of the test compound required for inhibiting the histamine release reaction by 50% (IC50) was calculated based on the percentage inhibition. IC50 of sodium cromoglicate was used as a control.

Test [2] deals with allergic foot-pad edema reaction. Kind of test: Immediate and late phase allergic response inhibition test (allergic foot-pad edema reaction). The class given is in vivo, Wister male rats. The note with it: Rattus norvegicus, po, 20 mg/kg orally, 10 min before induction. As to the method: Immediate and late phase allergic response inhibition test
Wister male rats weighing of 200 g were provided. 1010 organisms of Bordetella pertussis and 1 mg of dinitrophenylated ovalbumin (hereinafter abbreviated to "DNP-OA") were intramuscularly administered into the foot pad of the limbs of the rats except for the right hind leg. Further, ten days after the administration, 5 pg/site DNP-OA was subcutaneously administered to the right hind leg to induce allergic foot-pad edema reaction. The inhibitory activity of the test compounds was determined in such a manner that the volume of edema 30 min after the induction of the allergic reaction was regarded as an immediate phase allergic response and the volume of edema 8 hr after the induction of the allergic reaction was regarded as a late phase allergic response. Each test compound was dissolved or suspended in a 0.25% Tween 80 solution, and the solution or suspension was orally administered at a dose of 20 mg/kg 10 min before the induction of the allergic reaction.
Only the 0.25% Tween 80 solution was administered to the control group of rats not treated with any test compound, and 100 mg/kg sodium cromoglicate was subcutaneously or orally administered to the positive control group of rats.
The percentage inhibition of the allergic foot-pad edema reaction was determined by the following equation.
Percentage inhibition of allergic foot-pad edema reaction=(A-B)/A×100
wherein A: average edema volume for the non-treated control group of rats; and
B: average edema volume for the group of rats with the test compound administered.

Setting [3] is: 0.5 h, edema 30 min after induction, read-out: Inhibition (%) Immediate phase response.
Where [4] appears, read: edema 8 hr after induction, read-out: Inhibition (%) Late phase response.

Structures can show the parent of a compound that is named as a salt. Where two headings read alike, the source gives them in different places.

As to `Cc1cc(C)c2[nH]c(=O)c3nn[nH]c3c(=O)c2c1` [Example 29, 6,8-Dimethyl-4(5H),10-dioxo-1H-1,2,3-triazolo[4,5-c][1]benzazepine], the IC50 (as a rule, the concentration that gives 50% inhibition) in test [1] came to 31 nM.
On to `CC(C)Oc1cc2[nH]c(=O)c3nn[nH]c3c(=O)c2cc1OC(C)C` [Example 25, 7,8-diisopropoxy-4(5H),10-dioxo-1H-1,2,3-triazolo[4,5-c][1]benzazepine], for which the inhibition in vivo at 20 mg/kg in test [2] (setting [3]) amounted to 59%; in test [2] (setting [4]), 38%. For the same compound, the IC50 in test [1] turned out to be 4.9 nM.
Turning to `Cc1cccc(/C=C/c2ccc3c(=O)c4[nH]nnc4c(=O)[nH]c3c2)n1` [Example 32, (E)-7-(2-(6-Methyl-2-pyridyl)-(E)-ethenyl)-4(5H),10-dioxo-1H-1,2,3-triazolo[4,5-c][1]benzazepine trifluoroacetate], the inhibition in vivo at 20 mg/kg amounted to 55% in test [2] (setting [3]) and 43% in test [2] (setting [4]). Besides, the IC50 in test [1] came to 1.2 nM.
As to `CN1CCN(CCCOc2ccc3c(=O)c4[nH]nnc4c(=O)[nH]c3c2)CC1` [Example 13, 7-(3-(4-Methyl-1-piperazino)propoxy)-4(5H),10-dioxo-1H-1,2,3-triazolo[4,5-c][1]benzazepine ditrifluoroacetate], the inhibition in vivo at 20 mg/kg in test [2] (setting [3]) and in test [2] (setting [4]) was 28% each time. Besides, in test [1], the IC50 was found to be 11 nM.
On to `COc1cc2c(=O)c3[nH]nnc3c(=O)[nH]c2c(OC)c1OC` [Example 30, 6,7,8-Trimethoxy-4(5H),10-dioxo-1H-1,2,3-triazolo[4,5-c][1]benzazepine], for which the inhibition in vivo at 20 mg/kg in test [2] (setting [3]) is 58%; in test [2] (setting [4]), 51%. The IC50 in test [1] came to 8.7 nM.
As for `O=c1[nH]c2cc(C(F)(F)F)ccc2c(=O)c2[nH]nnc12` [Example 34, 7-Trifluoromethyl-4(5H),10-dioxo-1H-1,2,3-triazolo[4,5-c][1]benzazepine], the inhibition in vivo at 20 mg/kg came to 66% in test [2] (setting [3]) and 59% in test [2] (setting [4]). For the same compound, in test [1], the IC50 was found to be 5.3 nM.
As for `Cc1ccc(C(=O)Oc2ccc3c(=O)c4[nH]nnc4c(=O)[nH]c3c2)cc1` [Example 17, 4(5H),10-Dioxo-7-(4-toluoyloxy)-1H-1,2,3-triazolo[4,5-c][1]benzazepine], the results for the inhibition in vivo at 20 mg/kg in test [2] (setting [3]) and in test [2] (setting [4]) were 44% and 24%, respectively. Further, the IC50 in test [1] came to 4.1 nM.
For the compound `O=C(COc1ccc2c(=O)c3[nH]nnc3c(=O)[nH]c2c1)NCc1ccccn1` [Example 16, 4(5H ),10-Dioxo-7-(N-(2-pyridylmethyl)carbamoylmethyloxy)-1H-1,2,3-triazolo[4,5-c][1]benzazepine trifluoroacetate], the inhibition in vivo at 20 mg/kg in test [2] (setting [3]) stood at 48%; in test [2] (setting [4]), 35%. Further, the half-maximal inhibitory concentration (IC50) in test [1] worked out at 2.8 nM.
Consider `COc1cc2[nH]c(=O)c3nn[nH]c3c(=O)c2cc1OC(C)C` [Example 23, 8-Isopropoxy-7-methoxy-4(5H),10-dioxo-1H-1,2,3-triazolo[4,5-c][1]benzazepine], for which the values for the inhibition in vivo at 20 mg/kg in test [2] (setting [3]) and in test [2] (setting [4]) were 71% and 56%, respectively. Also, the IC50 in test [1] stood at 2.4 nM.
Turning to `O=c1[nH]c2cc3c(cc2c(=O)c2[nH]nnc12)OCO3` [Example 26, 7,8-Methylenedioxy-4(5H),10-dioxo-1H-1,2,3-triazolo[4,5-c][1]benzazepine], the inhibition in vivo at 20 mg/kg in test [2] (setting [3]) turned out to be 43%; in test [2] (setting [4]), 29%. Besides, the IC50 in test [1] came to 69 nM.
Regarding `CN(Cc1ccccn1)C(=O)CCc1ccc2c(=O)c3[nH]nnc3c(=O)[nH]c2c1` [Example 3, 4(5H),10-dioxo-7-(2-(N-methyl-N-(2-pyridyl)methyl)carbamoyl)ethyl-1H-1,2,3-triazolo[4,5-c][1]benzazepine], the inhibition in vivo at 20 mg/kg in test [2] (setting [3]) worked out at 44%; in test [2] (setting [4]), 14%. Further, in test [1], the IC50 amounted to 4.6 nM.
On to `O=c1[nH]c2cc(/C=C/c3ccc4ccccc4n3)ccc2c(=O)c2[nH]nnc12` [Example 33, 4(5H),10-Dioxo-7-(2-(2-quinolyl)-(E)-ethenyl)-1H-1,2,3-triazolo[4,5-c][1]benzazepine trifluoroacetate], for which the IC50 in test [1] was 0.4 nM.
For the compound `O=C(Nc1ccc2c(=O)c3[nH]nnc3c(=O)[nH]c2c1)c1ccc(OCCCCc2ccccc2)cc1` [Example 22, 4(5H),10-Dioxo-7-(4-phenylbutoxybenzoylamino)-1H-1,2,3-triazolo[4,5-c][1]benzazepine], the values for the inhibition in vivo at 20 mg/kg in test [2] (setting [3]) and in test [2] (setting [4]) were 40% and 41%, respectively. Also, the IC50 in test [1] turned out to be 8.1 nM.
For the compound `CN1CCN(C(=O)CCc2ccc3c(=O)c4[nH]nnc4c(=O)[nH]c3c2)CC1` [Example 8, 7-(2-(4-Methylpiperazin-1-yl)carbonylethyl)-4(5H),10-dioxo-1H-1,2,3-triazolo[4,5-c][1]benzazepine], the values for the inhibition in vivo at 20 mg/kg in test [2] (setting [3]) and in test [2] (setting [4]) were 42% and 20%, respectively. Besides, the IC50 in test [1] came out at 9.5 nM.
As for `O=c1[nH]c2cc(OCCCN3CCOCC3)ccc2c(=O)c2[nH]nnc12` [Example 12, 7-(3-Morpholinopropoxy)-4(5H),10-dioxo-1H-1,2,3-triazolo[4,5-c][1]benzazepine trifluoroacetate], the values for the inhibition in vivo at 20 mg/kg in test [2] (setting [3]) and in test [2] (setting [4]) were 46% and 42%, respectively. For the same compound, in test [1], the IC50 amounted to 3.6 nM.
Turning to `COc1ccc(C(=O)COc2cc3c(=O)c4[nH]nnc4c(=O)[nH]c3cc2C)cc1` [Example 27, 8-(4-Methoxyphenacyloxy)-7-methyl-4(5H),10-dioxo-1H-1,2,3-triazolo[4,5-c][1]benzazepine], the half-inhibitory concentration (IC50) in test [1] amounted to 10 nM.
Turning to `O=C(CCc1ccc2c(=O)c3[nH]nnc3c(=O)[nH]c2c1)N(Cc1ccccn1)Cc1ccccn1` [Example 5, 4(5H ),10-Dioxo-7-(2-(N,N-bis(2-pyridylmethyl))carbamoyl)ethyl-1H-1,2,3-triazolo[4,5-c][1]benzazepine], the inhibition in vivo at 20 mg/kg in test [2] (setting [3]) worked out at 40%; in test [2] (setting [4]), 43%. In addition, the IC50 in test [1] stood at 2.9 nM.
For the compound `O=C(/C=C/c1ccc2c(=O)c3[nH]nnc3c(=O)[nH]c2c1)Nc1ccccc1C(=O)O` [Example 1, 7-(2-(N-(2-Carboxyphenyl)carbamoyl)-(E)-ethenyl)-4(5H),10-dioxo-1H-1,2,3-triazolo[4,5-c][1]benzazepine], in test [1], the IC50 amounted to 6 nM.
Consider `O=C(CCc1ccc2c(=O)c3[nH]nnc3c(=O)[nH]c2c1)Nc1ccncc1` [Example 9, 7-(2-(N-(4-Pyridylamino))carbamoyl)ethyl-4(5H),10-dioxo-1H-1,2,3-triazolo[4,5-c][1]benzazepine], for which the inhibition in vivo at 20 mg/kg came to 30% in test [2] (setting [3]) and 33% in test [2] (setting [4]). Also, the half-inhibitory concentration (IC50) in test [1] was found to be 3.9 nM.
Regarding `O=c1[nH]c2cc(C=Cc3cccnc3)ccc2c(=O)c2[nH]nnc12` [Example 31, 4(5H),10-Dioxo-7-(2-(3-pyridyl)ethenyl)-1H-1,2,3-triazolo[4,5-c][1]benzazepine trifluoroacetate (E:Z=1:2)], the IC50 in test [1] worked out at 2 nM.
As to `O=C(CCc1ccc2c(=O)c3[nH]nnc3c(=O)[nH]c2c1)NCc1ccccn1` [Example 2, 4(5H),10-dioxo-7-(2-(N-(2-pyridyl)methyl)carbamoyl)ethyl-1H-1,2,3-triazolo[4,5-c][1]benzazepine], the inhibition in vivo at 20 mg/kg in test [2] (setting [3]) is 57%; in test [2] (setting [4]), 43%. Further, in test [1], the IC50 amounted to 4.4 nM.
As to `O=c1[nH]c2cc(OCCCN3CCC(Cc4ccccc4)CC3)ccc2c(=O)c2[nH]nnc12` [Example 14, 7-(3-(4-Benzylpiperidino)propoxy)-4(5H),10-dioxo-1H-1,2,3-triazolo[4,5-c][1]benzazepine trifluoroacetate], the results for the inhibition in vivo at 20 mg/kg in test [2] (setting [3]) and in test [2] (setting [4]) were 32% and 15%, respectively. Further, the IC50 in test [1] worked out at 11 nM.
Consider `O=c1[nH]c2cc(/C=C/c3ccccn3)ccc2c(=O)c2[nH]nnc12` [Example 11, 4(5H),10-Dioxo-7-(2-(2-pyridyl)-(E)-ethenyl)-1H-1,2,3-triazolo[4,5-c][1]benzazepine trifluoroacetate], for which the IC50 in test [1] stood at 1.8 nM.
